Assay results: ChEMBL document CHEMBL4402558, “Designing Chimeric Molecules for Drug Discovery by Leveraging Chemical Biology” (J Med Chem, 2020)

Species on record: Homo sapiens
Test: Antitumour activity against human DLBCL patients assessed as response rate co-treatment with rituximab relative to control
Type: functional

Question: With `Cn1c(CCCC(=O)O)nc2cc(N(CCCl)CCCl)ccc21` as the molecule, how does the Activity read?
Answer: 18%
